From patent US20240300942A1, “SMALL MOLECULES FOR TREATEMENT OF CANCER” (VRise Therapeutics Inc., priority 2021, published 2024)

What was measured:
[1] = tested on: MIAPACA-2 cell line; assay: In vitro cell proliferation assay (CCK-8) in MIAPACA-2 cell line; assay type: cell-based; conditions: Homo sapiens, MIA PaCa-2, 72 hours; for inhibition at 3 µM: TC1: Test Concentration of 3 uM; for inhibition at 10 µM: TC2: Test Concentration of 10 uM
Description: (§1) Growth inhibition assays is to be carried out using 10% FBS supplemented media. Cells are to be seeded at a desired concentration of 1,500-6,000 cells/well in a 96-well plate. Test compounds at a concentration range from 1 to 30 uM will be added after 24 hours. Growth will be assessed using the CCK-8 kit for measuring reduction at 0 h (prior to the addition of the test compound) and 72 hours after the addition of test compound. Absorbance read on a BIO-RAD iMark Microplate or any equivalent microplate reader at a wavelength of 450 nm. Data was analysed and percent inhibition due to the test compound compared to the control is calculated accordingly.

[2] = tested on: NCI-H358 cell line; assay: In vitro cell proliferation assay (CCK-8) in NCI-H358 cell line; assay type: cell-based; conditions: Homo sapiens, 72 hours; for inhibition at 3 µM: TC1: Test Concentration of 3 uM; for inhibition at 10 µM: TC2: Test Concentration of 10 uM
Description: as §1

What does the source list for C=CC(=O)N1CCN(c2nc(OC[C@@H]3CCCN3C)c(C#N)c3c2CCN(c2cccc4cccc(Cl)c24)C3)CC1CC#N (mixture of isomers) [Ex 23, 1-(4-acryloyl-3-(cyanomethyl)piperazin-1-yl)-6-(8-chloronaphthalen-1-yl)-3-(((S)-1-methylpyrrolidin-2-yl)methoxy)-5,6,7,8-tetrahydro-2,6-naphthyridine-4-carbonitrile]?
inhibition at 3 µM [1]: 75 to 100%; inhibition at 10 µM [1]: 75 to 100%; inhibition at 3 µM [2]: 75 to 100%; inhibition at 10 µM [2]: 75 to 100%

For C=CC(=O)N1CCN(c2nc(N3CC(C)OC(C)C3)c(C#N)c3c2CCN(c2cccc4ccccc24)C3)CC1 (centres unmarked) [Ex 52, 1-(4-acryloylpiperazin-1-yl)-3-(2,6-dimethylmorpholino)-6-(naphthalen-1-yl)-5,6,7,8-tetrahydro-2,6-naphthyridine-4-carbonitrile], which inhibition at 10 µM [1] is on record?
The inhibition at 10 µM was 75 to 100%.

What about the inhibition at 10 µM [2] of the same molecule?
The inhibition at 10 µM was 75 to 100%.

C=C(F)C(=O)N1CCN(c2nc(OC[C@@H]3CCCN3C)c(C#N)c3c2CCN(c2cccc4cccc(Cl)c24)C3)C[C@@H]1CC#N [Ex 27, 6-(8-chloronaphthalen-1-yl)-1-((S)-3-(cyanomethyl)-4-(2-fluoroacryloyl)piperazin-1-yl)-3-(((S)-1-methylpyrrolidin-2-yl)methoxy)-5,6,7,8-tetrahydro-2,6-naphthyridine-4-carbonitrile] was tested. Which inhibition at 3 µM [2] did it give?
Its inhibition at 3 µM is 50 to 75%.

What about the inhibition at 10 µM [2] of the same molecule?
Its inhibition at 10 µM is 75 to 100%.

With C=C(F)C(=O)N1CCN(c2nc(OC[C@@H]3CCCN3C)c(C#N)c3c2CCN(c2cccc4cccc(Cl)c24)C3)C[C@H]1CC#N [Ex 28, 6-(8-chloronaphthalen-1-yl)-1-((R)-3-(cyanomethyl)-4-(2-fluoroacryloyl)piperazin-1-yl)-3-(((S)-1-methylpyrrolidin-2-yl)methoxy)-5,6,7,8-tetrahydro-2,6-naphthyridine-4-carbonitrile] as the molecule, how does the inhibition at 3 µM [1] read?
The inhibition at 3 µM was 75 to 100%.

What about the inhibition at 10 µM [1] of the same molecule?
The inhibition at 10 µM was 75 to 100%.

What about the inhibition at 3 µM [2] of the same molecule?
Its inhibition at 3 µM is 50 to 75%.

And the inhibition at 10 µM [2]?
Its inhibition at 10 µM is 75 to 100%.

With C=CC(=O)N1CCN(c2nc(N3CCN(C(C)=O)CC3)c(C#N)c3c2CCN(c2cccc4ccccc24)C3)CC1 [Ex 51, 3-(4-acetylpiperazin-1-yl)-1-(4-acryloylpiperazin-1-yl)-6-(naphthalen-1-yl)-5,6,7,8-tetrahydro-2,6-naphthyridine-4-carbonitrile] as the molecule, how does the inhibition at 10 µM [2] read?
The inhibition at 10 µM was 50 to 75%.

For C=CC(=O)N1CCN(c2nc(N3CCN(C(=O)CC)CC3)c3c(c2C#N)CN(c2cccc4ccccc24)CC3)CC1 [Ex 49, 3-(4-acryloylpiperazin-1-yl)-6-(naphthalen-1-yl)-1-(4-propionylpiperazin-1-yl)-5,6,7,8-tetrahydro-2,6-naphthyridine-4-carbonitrile], which inhibition at 10 µM [2] is on record?
Its inhibition at 10 µM is 75 to 100%.

How did the inhibition at 10 µM [2] turn out when C=CC(=O)N1CCN(c2nc(OCC3CCCN3C)c(C#N)c3c2CCN(Cc2ccccc2)C3)CC1 (centres unmarked) [Ex 45, 1-(4-acryloylpiperazin-1-yl)-6-benzyl-3-((1-methylpyrrolidin-2-yl)methoxy)-5,6,7,8-tetrahydro-2,6-naphthyridine-4-carbonitrile] was run?
The inhibition at 10 µM was no more than 25%.

C=CC(=O)N1CCN(c2nc(N3CCN(C)CC3)c(C#N)c3c2CCN(Cc2ccccc2)C3)CC1 [Ex 35, 1-(4-acryloylpiperazin-1-yl)-6-benzyl-3-(4-methylpiperazin-1-yl)-5,6,7,8-tetrahydro-2,6-naphthyridine-4-carbonitrile] was tested. Which inhibition at 10 µM [2] did it give?
The inhibition at 10 µM was 25 to 50%.

C=CC(=O)N1CCN(c2nc(O)c(C#N)c3c2CCN(Cc2ccccc2)C3)CC1 [Ex 40, 1-(4-acryloylpiperazin-1-yl)-6-benzyl-3-hydroxy-5,6,7,8-tetrahydro-2,6-naphthyridine-4-carbonitrile] was tested. Which inhibition at 10 µM [2] did it give?
Its inhibition at 10 µM is no more than 25%.

With C=CC(=O)Oc1nc(N2CCN(C(=O)C=C)CC2)c2c(c1C#N)CN(Cc1ccccc1)CC2 [Ex 33, 1-(4-acryloylpiperazin-1-yl)-6-benzyl-4-cyano-5,6,7,8-tetrahydro-2,6-naphthyridin-3-yl acrylate] as the molecule, how does the inhibition at 10 µM [2] read?
The inhibition at 10 µM was no more than 25%.

C=CC(=O)N1CCN(c2nc(N3CCN(C(=O)C=C)CC3)c3c(c2C#N)CN(c2cccc4ccccc24)CC3)CC1 [Ex 46, 1,3-bis(4-acryloylpiperazin-1-yl)-6-(naphthalen-1-yl)-5,6,7,8-tetrahydro-2,6-naphthyridine-4-carbonitrile] was tested. Which inhibition at 10 µM [2] did it give?
The inhibition at 10 µM was 75 to 100%.

C=CC(=O)N1CCN(c2nc(N3CCN(CC)CC3)c(C#N)c3c2CCN(c2cccc4ccccc24)C3)CC1 [Ex 54, 1-(4-acryloylpiperazin-1-yl)-3-(4-ethylpiperazin-1-yl)-6-(naphthalen-1-yl)-5,6,7,8-tetrahydro-2,6-naphthyridine-4-carbonitrile] was tested. Which inhibition at 10 µM [1] did it give?
Its inhibition at 10 µM is 75 to 100%.

And the inhibition at 10 µM [2]?
The inhibition at 10 µM was 75 to 100%.

With C=CC(=O)N1CCN(c2nc(N3CCOCC3)c(C#N)c3c2CCN(c2cccc4ccccc24)C3)CC1 [Ex 50, 1-(4-acryloylpiperazin-1-yl)-3-morpholino-6-(naphthalen-1-yl)-5,6,7,8-tetrahydro-2,6-naphthyridine-4-carbonitrile] as the molecule, how does the inhibition at 10 µM [2] read?
The inhibition at 10 µM was 75 to 100%.

Which results are given for C=C(F)C(=O)N1CCN(c2nc(OC[C@@H]3CCCN3C)c(C#N)c3c2CCN(c2cccc4cccc(Cl)c24)C3)CC1CC#N (stereo partly drawn) [Ex 26, 6-(8-chloronaphthalen-1-yl)-1-(3-(cyanomethyl)-4-(2-fluoroacryloyl)piperazin-1-yl)-3-(((S)-1-methylpyrrolidin-2-yl)methoxy)-5,6,7,8-tetrahydro-2,6-naphthyridine-4-carbonitrile]?
inhibition at 3 µM [2]: 25 to 50%; inhibition at 10 µM [2]: 75 to 100%

C=CC(=O)N1CCN(c2nc(N3CCN(C)CC3)c(C#N)c3c2CCN(Cc2ccccc2)C3)[C@H](C)C1 [Ex 39, (R)-1-(4-acryloyl-2-methylpiperazin-1-yl)-6-benzyl-3-(4-methylpiperazin-1-yl)-5,6,7,8-tetrahydro-2,6-naphthyridine-4-carbonitrile] was tested. Which inhibition at 10 µM [2] did it give?
Its inhibition at 10 µM is 25 to 50%.

For C=CC(=O)N1CCN(c2nc(N3CCCCC3)c(C#N)c3c2CCN(Cc2ccccc2)C3)CC1 [Ex 42, 1-(4-acryloylpiperazin-1-yl)-6-benzyl-3-(piperidin-1-yl)-5,6,7,8-tetrahydro-2,6-naphthyridine-4-carbonitrile], which inhibition at 10 µM [2] is on record?
Its inhibition at 10 µM is 25 to 50%.

Which inhibition at 10 µM [2] does the source give for C=CC(=O)N1CCN(c2nc(N3CCN(C)CC3)c(C#N)c3c2CCN(C(=O)c2cccc4ccccc24)C3)CC1CC#N (centres unmarked) [Ex 37, 6-(1-naphthoyl)-1-(4-acryloyl-3-(cyanomethyl)piperazin-1-yl)-3-(4-methylpiperazin-1-yl)-5,6,7,8-tetrahydro-2,6-naphthyridine-4-carbonitrile] here?
Its inhibition at 10 µM is 75 to 100%.

C=CC(=O)N1CCN(c2nc(N3CCN(C(=O)C=C)CC3)c3c(c2C#N)CN(c2cccc4sccc24)CC3)CC1 [Ex 47, 1,3-bis(4-acryloylpiperazin-1-yl)-6-(benzo[b]thiophen-4-yl)-5,6,7,8-tetrahydro-2,6-naphthyridine-4-carbonitrile] was tested. Which inhibition at 10 µM [2] did it give?
The inhibition at 10 µM was 75 to 100%.

For C=C(F)C(=O)N1CCN(c2nc(N3CCN(C(=O)CC)CC3)c(C#N)c3c2CCN(c2cccc4ccccc24)C3)CC1 [Ex 57, 1-(4-(2-fluoroacryloyl)piperazin-1-yl)-6-(naphthalen-1-yl)-3-(4-propionylpiperazin-1-yl)-5,6,7,8-tetrahydro-2,6-naphthyridine-4-carbonitrile], which inhibition at 10 µM [2] is on record?
The inhibition at 10 µM was 75 to 100%.

With C=CC(=O)N1CCN(c2nc(N3CCN(C(=O)CC)CC3)c(C#N)c3c2CCN(c2cccc4ccccc24)C3)CC1 [Ex 48, 1-(4-acryloylpiperazin-1-yl)-6-(naphthalen-1-yl)-3-(4-propionylpiperazin-1-yl)-5,6,7,8-tetrahydro-2,6-naphthyridine-4-carbonitrile] as the molecule, how does the inhibition at 10 µM [2] read?
Its inhibition at 10 µM is 75 to 100%.

C=CC(=O)N1CCN(c2nc(N3CCN(C)CC3)c(C#N)c3c2CCN(Cc2ccccc2)C3)[C@@H](C)C1 [Ex 38, (S)-1-(4-acryloyl-2-methylpiperazin-1-yl)-6-benzyl-3-(4-methylpiperazin-1-yl)-5,6,7,8-tetrahydro-2,6-naphthyridine-4-carbonitrile] was tested. Which inhibition at 10 µM [2] did it give?
Its inhibition at 10 µM is no more than 25%.

What does the source list for C=CC(=O)N1CCN(c2nc(OC[C@@H]3CCCN3C)c(C#N)c3c2CCN(c2cccc4cccc(Cl)c24)C3)CC1CC#N (single isomer, unassigned) [Ex 24]?
inhibition at 3 µM [1]: 75 to 100%; inhibition at 10 µM [1]: 75 to 100%; inhibition at 3 µM [2]: 75 to 100%; inhibition at 10 µM [2]: 75 to 100%

Which inhibition at 10 µM [1] does the source give for C=CC(=O)N1CCN(c2nc(N3CCN(S(C)(=O)=O)CC3)c(C#N)c3c2CCN(c2cccc4ccccc24)C3)CC1 [Ex 53, 1-(4-acryloylpiperazin-1-yl)-3-(4-(methylsulfonyl)piperazin-1-yl)-6-(naphthalen-1-yl)-5,6,7,8-tetrahydro-2,6-naphthyridine-4-carbonitrile] here?
Its inhibition at 10 µM is 75 to 100%.

What about the inhibition at 10 µM [2] of the same molecule?
The inhibition at 10 µM was 75 to 100%.

Which results are given for C=CC(=O)N1CCN(c2nc(OC[C@@H]3CCCN3C)c(C#N)c3c2CCN(c2cccc4ccccc24)C3)CC1 [Ex 55, (S)-1-(4-acryloylpiperazin-1-yl)-3-((1-methylpyrrolidin-2-yl)methoxy)-6-(naphthalen-1-yl)-5,6,7,8-tetrahydro-2,6-naphthyridine-4-carbonitrile]?
inhibition at 10 µM [1]: 75 to 100%; inhibition at 10 µM [2]: 75 to 100%

C=CC(=O)N1CCN(c2nc(N3CCN(C)CC3)c(C#N)c3c2CCN(c2cccc4ccccc24)C3)CC1 [Ex 41, 1-(4-acryloylpiperazin-1-yl)-3-(4-methylpiperazin-1-yl)-6-(naphthalen-1-yl)-5,6,7,8-tetrahydro-2,6-naphthyridine-4-carbonitrile] was tested. Which inhibition at 10 µM [2] did it give?
Its inhibition at 10 µM is 25 to 50%.

C=CC(=O)N1CCN(c2ncc(C#N)c3c2CCN(c2cccc4ccccc24)C3)CC1 [Ex 56, 1-(4-acryloylpiperazin-1-yl)-6-(naphthalen-1-yl)-5,6,7,8-tetrahydro-2,6-naphthyridine-4-carbonitrile] was tested. Which inhibition at 10 µM [2] did it give?
The inhibition at 10 µM was no more than 25%.
